# Several values for one entry are separate records, joined by “and”; a condition that tells them apart may be missing. Equal entries are not always repeated.
# Test system: WM3248 melanoma cells, 486 antibodies
# Assay: Reverse phase protein arrays (RPPA);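 as to Cyclin.E1.R.V RPPA level: ratio of treated to vehicle (0 µM) normalized linear protein signal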;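 as to DDB.1.R.V RPPA level: ratio of treated to vehicle (0 µM) normalized linear protein signal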
# Format: cell-based, Human
# Details: 20 uM
# Description: Pellets were snap frozen in liquid nitrogen and shipped to MD Anderson Cancer Center core RPPA facility for RPPA analysis (Table S5). Three biological replicates for each sample were generated.
# Nomenclatures on the RPPA heatmaps: name_of_antibody.species_of_antibody.status_of_antibody. V - antibody validated; C - validation of antibody in progress; Q - antibody nonspecific; E – under evaluation; antibodies raised in M - mouse, G - goat, R - rabbit, or T - rat.
smiles,measurement,setting,value
"CN(C)c1cccc(Nc2cc(-c3ccccc3)nc(C3CCNCC3)n2)c1 [ARN22089, N1,N1-dimethyl-N3-(6-phenyl-2-(piperidin-4-yl)pyrimidin-4-yl)benzene-1,3-diamine]",Cyclin.D3.M.V RPPA level,replicates,0.858 and 0.793 and 0.870
same,Cyclin.E1.R.V RPPA level,replicates,1.034 and 0.978 and 0.864
same,Cyclophilin.F.M.V RPPA level,replicates,1.052 and 0.867 and 0.858
same,D.a.Tubulin.R.V RPPA level,replicates,0.908 and 1.131 and 1.049
same,DAPK1_pS308.M.C RPPA level,replicates,1.387 and 1.152
same,DAPK2.R.C RPPA level,replicates,0.896 and 1.008 and 1.104
same,DDB.1.R.V RPPA level,replicates,1.000 and 0.862 and 0.981
same,DDR1.R.V RPPA level,replicates,1.126 and 0.892 and 0.988
same,DDR1_pY513.R.C RPPA level,replicates,1.221 and 1.216 and 0.940
same,DJ1.R.V RPPA level,replicates,0.994 and 0.831 and 1.019
same,DM.Histone.H3.R.V RPPA level,replicates,4.051 and 0.967
same,DM.K9.Histone.H3.M.V RPPA level,replicates,1.226 and 2.170 and 0.946
same,DNA.Ligase.IV.R.C RPPA level,replicates,0.890 and 0.918 and 1.135
same,DNA_POLG.R.V RPPA level,replicates,1.260 and 0.956 and 0.859
same,c.Jun_pS73.R.V RPPA level,replicates,0.959 and 1.053 and 0.897
same,c.Kit.R.V RPPA level,replicates,1.404 and 1.046 and 0.973
same,c.Met_pY1234_Y1235.R.V RPPA level,replicates,0.958 and 1.104 and 1.130
same,c.Myc.R.C RPPA level,replicates,0.956 and 0.888 and 0.971
same,cGAS.R.V RPPA level,replicates,1.158 and 0.984
same,cdc2_pY15.R.C RPPA level,replicates,0.840 and 1.245 and 1.217
same,cdc25C.R.V RPPA level,replicates,0.813 and 0.749 and 1.085
same,RPPA MYH11.R.C,single replicates,1.235 and 1.080 and 0.987
same,RPPA Myosin.IIa.R.C,single replicates,0.819 and 0.811 and 1.194
same,RPPA Myosin.IIa_pS1943.R.V,single replicates,1.011 and 0.857 and 1.050
same,RPPA Myt1.R.C,single replicates,0.843 and 1.001 and 1.193
same,RPPA N.Cadherin.R.V,single replicates,1.047 and 1.081 and 0.976
same,RPPA N.Ras.M.V,single replicates,0.921 and 0.893 and 0.971
same,RPPA NAPSIN.A.R.C,single replicates,0.982 and 1.016 and 1.141
same,RPPA NDRG1_pT346.R.V,single replicates,0.868 and 0.915 and 1.192
same,RPPA NDUFB4.R.V,single replicates,1.100 and 0.998 and 0.982
same,RPPA NRF2.R.C,single replicates,0.849 and 0.982 and 0.977
same,RPPA Notch1.R.V,single replicates,1.052 and 1.121 and 0.952
same,RPPA Notch1.cleaved.R.V,single replicates,0.740 and 0.849 and 1.080
same,RPPA Notch3.R.C,single replicates,1.026 and 1.150 and 0.931
same,RPPA Oct.4.R.C,single replicates,0.991 and 1.164 and 1.209
same,RPPA P.Cadherin.R.C,single replicates,1.264 and 1.125
same,RPPA PAI.1.M.V,single replicates,1.005 and 1.281 and 0.932
same,RPPA PAICS.R.C,single replicates,0.803 and 0.811 and 1.058
same,RPPA PAK1.R.V,single replicates,0.820 and 0.886 and 1.049
same,RPPA PAK4.R.V,single replicates,1.076 and 0.939
same,RPPA PAK_pS474_S602_S560.R.V,single replicates,1.380 and 1.298 and 0.931
same,RPPA PAK_pT423_T402.R.C,single replicates,1.015 and 1.053 and 0.971
same,RPPA PAR.R.C,single replicates,0.974 and 1.464 and 0.714
same,RPPA PARG.R.C,single replicates,1.599 and 1.316 and 1.014
same,RPPA PARP.R.V,single replicates,0.538 and 1.057 and 1.348
same,RPPA PAX6.R.V,single replicates,1.001 and 1.058 and 0.982
same,RPPA PAX8.R.C,single replicates,1.024 and 0.925 and 0.962
same,RPPA PCNA.M.C,single replicates,0.783 and 0.854 and 0.955
same,RPPA PD.1.R.V,single replicates,1.098 and 1.052 and 0.984
same,RPPA PD.L1.R.C,single replicates,0.895 and 1.054 and 1.001
same,RPPA PDH.M.V,single replicates,0.970 and 1.058 and 0.953
same,RPPA PDHA1.R.V,single replicates,0.972 and 1.004 and 1.113
same,RPPA PDHK1.R.C,single replicates,0.803 and 0.959 and 1.129
same,RPPA PDK1.R.V,single replicates,1.000 and 1.250
same,RPPA PDK1_pS241.R.V,single replicates,0.916 and 0.898 and 1.103
same,RPPA PEA.15.R.V,single replicates,0.986 and 0.870 and 0.999
same,RPPA PEA.15_pS116.R.V,single replicates,1.029 and 0.986
same,RPPA PERK.R.V,single replicates,1.320 and 0.802 and 0.841
same,RPPA PGM1.R.V,single replicates,0.846 and 0.933
same,RPPA PHGDH.R.C,single replicates,0.989 and 0.962
same,RPPA PHLPP.R.V,single replicates,1.674 and 0.930 and 0.767
same,RPPA PI3K.p85.R.C,single replicates,1.023 and 0.792 and 0.886
same,RPPA PI3K.p110.a.R.C,single replicates,0.804 and 0.921
same,RPPA PI3K.p110.b.M.C,single replicates,0.988 and 0.918 and 0.941
same,RPPA PKA.a.R.V,single replicates,0.974 and 0.780 and 1.028
same,RPPA PKC.a.b.II_pT638_T641.R.V,single replicates,0.684 and 0.941 and 1.154
same,RPPA PKC.b.II_pS660.R.V,single replicates,0.997 and 1.114 and 1.126
same,RPPA PKCa.R.V,single replicates,0.630 and 2.106 and 1.942
same,RPPA PKM2.R.C,single replicates,0.846 and 0.763
same,RPPA PLC.gamma1.R.V,single replicates,1.296 and 0.944 and 0.963
same,RPPA PLC.gamma1_pS1248.R.V,single replicates,0.837 and 0.893 and 0.954
same,RPPA PLC.gamma2_pY759.R.V,single replicates,1.000 and 1.004 and 0.945
same,RPPA PLK1.R.C,single replicates,1.107 and 0.592 and 1.060
same,RPPA PMS2.R.V,single replicates,1.016 and 0.991 and 0.952
same,RPPA PR.R.V,single replicates,0.957 and 0.966 and 0.945
same,RPPA PRAS40.M.C,single replicates,1.496 and 1.229 and 0.955
same,RPPA PRAS40_pT246.R.V,single replicates,1.099 and 1.166
same,RPPA PRC1_pT481.R.C,single replicates,1.163 and 1.114 and 0.975
same,RPPA PREX1.R.V,single replicates,0.874 and 0.851 and 1.124
same,RPPA PTEN.R.V,single replicates,1.018 and 1.109 and 1.120
same,RPPA PTPN12.R.V,single replicates,1.234 and 1.447
